Measured values published in patent publication US10676429B2, “Sulfamoyl-arylamides and the use thereof as medicaments for the treatment of hepatitis B” (priority 2012, dated 2020).

Experiments:
[1] = test system: HBV; assay: Anti-HBV activity in HepG2.117 cell line (Tet-off, intracellular HBV DNA, realtime PCR); format: cell-based; conditions: Hepatitis B virus, HepG2.117, 72 h, HepG2.117 cells, 3 days of treatment, intracellular HBV DNA; read-out: HepG2 117 EC50
[2] = Cytotoxicity in HepG2 cells, 4 days, Resazurin assay; conditions: human, HepG2 cells
[3] = test system: HBV; assay: Anti-HBV activity in stable transfected HepG2.2.15 cell line (HBV DNA from secreted virions, realtime PCR); format: cell-based; conditions: Hepatitis B virus, HepG2.2.15, 144 h, HepG2.2.15 cells, 6 days of treatment, secreted virion HBV DNA; read-out: HepG2 2.15 EC50

## O=C(Nc1ccc(F)cc1)c1cc(S(=O)(=O)NC2CCCC2)c(Cl)cc1Cl [Compound 78]
[1]
  EC50: 650 nM
[2]
  CC50 at 4 days: > 25000 nM
[3]
  EC50: 900 nM

## CCC(C)(C)NS(=O)(=O)c1cccc(C(=O)Nc2ccc(F)cc2)c1 [Compound 79]
[1]
  EC50: 1690 nM
[2]
  CC50 at 4 days: > 25000 nM
[3]
  EC50: 960 nM

## Cc1cc(C#N)cc(NC(=O)c2cccc(S(=O)(=O)NC3CCCC3)c2)c1 [Compound 82]
[1]
  EC50: 3130 nM
[2]
  CC50 at 4 days: > 25000 nM
[3]
  EC50: 1200 nM

## CCC1(NS(=O)(=O)c2cccc(C(=O)Nc3ccc(F)c(C)c3)c2)COC1 [Compound 93]
[1]
  EC50: 220 nM
[2]
  CC50 at 4 days: > 25000 nM
[3]
  EC50: 70 nM

## O=C(Nc1cc(F)cc(F)c1)c1cccc(S(=O)(=O)NC2CCCC2)c1 [Compound 15]
[1]
  EC50: 780 nM
[2]
  CC50 at 4 days: 10100 nM
[3]
  EC50: 280 nM

## Cc1cc(NC(=O)c2cccc(S(=O)(=O)N[C@H](C)c3ccccc3)c2)ccc1F [Compound 166]
[1]
  EC50: 2390 nM
[2]
  CC50 at 4 days: 14600 nM
[3]
  EC50: 190 nM

## O=C(Nc1ccc(F)c(F)c1)c1cccc(S(=O)(=O)N[C@H]2CCOC2)c1 [Compound 90]
[1]
  EC50: 510 nM
[2]
  CC50 at 4 days: > 25000 nM
[3]
  EC50: 380 nM

## COc1cc(NC(=O)c2cccc(S(=O)(=O)NC3(C)COC3)c2)ccc1F [Compound 109]
[1]
  EC50: 2530 nM
[2]
  CC50 at 4 days: > 25000 nM
[3]
  EC50: 1230 nM

## O=C(Nc1ccccc1)c1cc(S(=O)(=O)N2CCCCC2)cs1 [Compound 59]
[1]
  EC50: 19300 nM
[2]
  CC50 at 4 days: 46700 nM
[3]
  EC50: 12800 nM

## Cc1cc(NC(=O)c2cccc(S(=O)(=O)N[C@@H]3c4ccccc4C[C@H]3O)c2)ccc1F [Compound 175]
[1]
  EC50: 150 nM
[2]
  CC50 at 4 days: > 25000 nM
[3]
  EC50: 230 nM

## O=C(Nc1ccc(F)cc1)c1cccc(S(=O)(=O)N2CCCCC2=O)c1 [Compound 69]
[1]
  EC50: 10400 nM
[2]
  CC50 at 4 days: > 25000 nM
[3]
  EC50: 3900 nM

## Cc1cc(NC(=O)c2cccc(S(=O)(=O)NC3(C)COC3)c2)ccc1F [Compound 97]
[1]
  EC50: 370 nM
[2]
  CC50 at 4 days: > 25000 nM
[3]
  EC50: 120 nM

## Cc1cc(NC(=O)c2cccc(S(=O)(=O)NC(C)C)c2)cc(C)c1F [Compound 186]
[1]
  EC50: 1340 nM
[2]
  CC50 at 4 days: > 25000 nM
[3]
  EC50: 200 nM

## Cc1cc(NC(=O)c2cccc(S(=O)(=O)NC3COCC3O)c2)ccc1F (stereo not drawn) [Compound 171]
[1]
  EC50: 4390 nM
[2]
  CC50 at 4 days: > 25000 nM
[3]
  EC50: 790 nM

## Cc1cc(NC(=O)c2cccc(S(=O)(=O)N[C@@H]3CCOC3)c2)ccc1F [Compound 129]
[1]
  EC50: 780 nM
[2]
  CC50 at 4 days: > 25000 nM
[3]
  EC50: 350 nM

## Cc1cc(NC(=O)c2ccc(S(=O)(=O)NC3(C)COC3)o2)ccc1F [Compound 231]
[1]
  EC50: 320 nM
[2]
  CC50 at 4 days: > 25000 nM
[3]
  EC50: 210 nM

## Cc1cc(NC(=O)c2cccc(S(=O)(=O)N[C@@H]3CCCC[C@@H]3O)c2)ccc1F (racemic) [Compound 132]
[1]
  EC50: 730 nM
[2]
  CC50 at 4 days: > 25000 nM
[3]
  EC50: 590 nM

## Cc1cc(NC(=O)c2cccc(S(=O)(=O)NC3CCCC3)c2)ccc1C#N [Compound 16]
[1]
  EC50: 2800 nM
[2]
  CC50 at 4 days: 10300 nM
[3]
  EC50: 1210 nM

## Cc1cc(NC(=O)c2cccc(S(=O)(=O)NC(C)CCN3CCOCC3)c2)ccc1F (stereo not drawn) [Compound 165]
[1]
  EC50: 360 nM
[2]
  CC50 at 4 days: > 25000 nM
[3]
  EC50: 710 nM

## Cc1cc(NC(=O)c2cccc(S(=O)(=O)N[C@@H](C)[C@H](O)c3ccccc3)c2)ccc1F [Compound 143]
[1]
  EC50: 2660 nM
[2]
  CC50 at 4 days: > 25000 nM
[3]
  EC50: 910 nM

## Cc1cc(NC(=O)c2cc(Cl)cc(S(=O)(=O)N[C@H]3CCOC3)c2F)ccc1F [Compound 123]
[1]
  EC50: 300 nM
[2]
  CC50 at 4 days: > 25000 nM
[3]
  EC50: 150 nM

## CC1(NS(=O)(=O)c2cccc(C(=O)Nc3ccc(F)cc3)c2)CCCC1 [Compound 76]
[1]
  EC50: 2500 nM
[2]
  CC50 at 4 days: > 25000 nM
[3]
  EC50: 720 nM

## O=C(Nc1ccc(F)c(C(F)F)c1)c1cccc(S(=O)(=O)N[C@H]2CCOC2)c1 [Compound 102]
[1]
  EC50: 330 nM
[2]
  CC50 at 4 days: > 25000 nM
[3]
  EC50: 180 nM

## Cc1cc(NC(=O)c2cccc(S(=O)(=O)NCCC3CC3)c2)ccc1F [Compound 170]
[1]
  EC50: 450 nM
[2]
  CC50 at 4 days: > 25000 nM
[3]
  EC50: 260 nM

## N#Cc1cc(NC(=O)c2cccc(S(=O)(=O)N[C@H]3CCOC3)c2)ccc1F [Compound 105]
[1]
  EC50: 980 nM
[2]
  CC50 at 4 days: > 25000 nM
[3]
  EC50: 810 nM

## CC[C@@H](C)NS(=O)(=O)c1cccc(C(=O)Nc2ccc(F)cc2)c1 [Compound 70]
[1]
  EC50: 890 nM
[2]
  CC50 at 4 days: > 25000 nM
[3]
  EC50: 340 nM

## O=C(Nc1ccc(F)c(Cl)c1)c1c(F)ccc(S(=O)(=O)N[C@H]2CCOC2)c1F [Compound 201]
[1]
  EC50: 60 nM
[2]
  CC50 at 4 days: > 25000 nM
[3]
  EC50: 60 nM
